Experimental data reported in patent US4231958A, “Ureylene phenylene anionic naphthalenesulfonic acids” (American Cyanamid Company, priority 1979, dated 1980).
Structures can show the parent of a compound that is named as a salt.

Columns and labels:
[1] = test system: late components of human complement (C3-C9); test: Test Code 035 (C3-C9 inhibitor), lysis of EAC 142; assay type: biochemical; details: serial twofold dilution assay; higher well number indicates higher activity
From the text: (§1) An active inhibitor protects C2 from C1 and C4; (ii) Test Code 035 (C3-C9 inhibitor)--This test determines the ability of the late components of human complement (C3-C9) to lyse EAC 142 in the presence of appropriate dilutions of the test compound. An active inhibitor protects EAC 142 from lysis by human C3-C9; (iii) Test Code 036 (C-Shunt inhibitor)--In this test human erythrocytes rendered fragile are lysed in autologous serum via the shunt pathway activated by cobra venom factor in the presence of appropriate dilutions of the test compound. Inhibition of the shunt pathway results in failure of lysis; (iv) Forssman Vasculitis Test--Here, the well known complement dependent lesion, Forssman vasculitis, is produced in guinea pigs by intradermal injection of rabbit anti-Forssman antiserum. The lesion is measured in terms of diameter, edema and hemorrhage and the extent to which a combined index of these is inhibited by prior intraperitoneal injection of the test compound at 200 mg/kg is then reported, unless otherwise stated; (v) Forssman Shock Test--Lethal shock is produced in guinea pigs by an i.v. injection of anti-Forssman antiserum and the harmonic mean death time of treated guinea pigs is compared with that of simultaneous controls; (vi) Complement Level Reduction Test--In this test, the above dosed guinea pigs, or others, are bled for serum and the complement level is determined in undiluted serum by the capillary tube method of U.S. Pat. No. 3,876,376 and compared to undosed control guinea pigs; and (vii) Cap 50 Test--Here, appropriate amounts of the test compound are added to a pool of guinea pig serum in vitro, after which the undiluted serum capillary tube assay referred to above is run. The concentration of compound inhibiting 50% is reported.

[2] = test system: shunt pathway activated by cobra venom factor; test: Test Code 036 (C-Shunt inhibitor), lysis of human erythrocytes in autologous serum, cobra venom factor; assay type: cell-based; details: serial twofold dilution assay; higher well number indicates higher activity
From the text: as §1

[3] = target: T1, activated human C1 (Homo sapiens, UniProt P09871); test: Test Code 026 (C1-inhibitor); assay type: biochemical; details: serial twofold dilution assay; higher well number indicates higher activity
T1 construct: cleavage of fluid-phase human C2 in presence of C4
T1 sequence (P09871 16-688): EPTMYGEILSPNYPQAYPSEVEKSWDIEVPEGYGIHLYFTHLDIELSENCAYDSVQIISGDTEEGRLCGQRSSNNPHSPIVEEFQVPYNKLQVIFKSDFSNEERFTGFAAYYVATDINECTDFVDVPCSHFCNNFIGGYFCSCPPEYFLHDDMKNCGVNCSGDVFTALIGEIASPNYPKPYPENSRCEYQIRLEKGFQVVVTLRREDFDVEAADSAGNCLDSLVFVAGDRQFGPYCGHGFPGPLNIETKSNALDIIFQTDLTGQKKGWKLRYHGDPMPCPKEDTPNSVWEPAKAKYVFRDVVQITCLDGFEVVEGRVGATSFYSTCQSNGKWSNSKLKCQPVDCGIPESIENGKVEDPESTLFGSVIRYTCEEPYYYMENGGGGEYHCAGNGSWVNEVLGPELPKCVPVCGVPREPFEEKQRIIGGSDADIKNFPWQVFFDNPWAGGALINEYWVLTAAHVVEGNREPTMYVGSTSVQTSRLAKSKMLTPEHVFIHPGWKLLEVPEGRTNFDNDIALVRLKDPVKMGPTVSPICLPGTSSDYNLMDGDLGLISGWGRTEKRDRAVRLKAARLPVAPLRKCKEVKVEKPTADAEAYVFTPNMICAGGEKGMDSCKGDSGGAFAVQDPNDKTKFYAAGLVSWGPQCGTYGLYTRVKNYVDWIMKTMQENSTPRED
T1 sequence (P00736 18-705 partner): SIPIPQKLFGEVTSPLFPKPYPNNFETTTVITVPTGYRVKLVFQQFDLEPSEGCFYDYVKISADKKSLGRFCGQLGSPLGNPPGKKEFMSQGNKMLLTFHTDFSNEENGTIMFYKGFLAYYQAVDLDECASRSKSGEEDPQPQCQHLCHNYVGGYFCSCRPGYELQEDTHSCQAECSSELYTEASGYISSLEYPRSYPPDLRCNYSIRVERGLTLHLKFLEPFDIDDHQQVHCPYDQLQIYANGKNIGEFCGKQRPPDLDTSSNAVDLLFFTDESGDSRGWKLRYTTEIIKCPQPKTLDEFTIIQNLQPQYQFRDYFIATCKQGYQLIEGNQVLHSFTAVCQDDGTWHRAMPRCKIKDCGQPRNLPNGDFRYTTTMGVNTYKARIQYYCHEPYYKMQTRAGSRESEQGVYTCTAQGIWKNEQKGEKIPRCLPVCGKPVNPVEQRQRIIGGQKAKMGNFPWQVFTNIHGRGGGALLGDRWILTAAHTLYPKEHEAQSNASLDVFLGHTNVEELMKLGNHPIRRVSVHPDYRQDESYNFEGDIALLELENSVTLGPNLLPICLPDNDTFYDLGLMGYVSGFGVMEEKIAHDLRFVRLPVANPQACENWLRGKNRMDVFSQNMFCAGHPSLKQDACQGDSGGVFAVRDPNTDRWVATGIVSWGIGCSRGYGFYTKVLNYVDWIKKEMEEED
T1 sequence (P02745 23-245 partner): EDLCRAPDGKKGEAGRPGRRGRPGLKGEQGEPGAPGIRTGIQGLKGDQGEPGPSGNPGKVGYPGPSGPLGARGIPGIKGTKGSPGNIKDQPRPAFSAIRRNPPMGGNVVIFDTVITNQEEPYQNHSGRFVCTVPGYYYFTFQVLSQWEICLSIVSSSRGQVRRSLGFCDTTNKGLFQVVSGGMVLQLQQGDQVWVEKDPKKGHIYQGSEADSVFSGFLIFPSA
T1 sequence (P02746 28-253 partner): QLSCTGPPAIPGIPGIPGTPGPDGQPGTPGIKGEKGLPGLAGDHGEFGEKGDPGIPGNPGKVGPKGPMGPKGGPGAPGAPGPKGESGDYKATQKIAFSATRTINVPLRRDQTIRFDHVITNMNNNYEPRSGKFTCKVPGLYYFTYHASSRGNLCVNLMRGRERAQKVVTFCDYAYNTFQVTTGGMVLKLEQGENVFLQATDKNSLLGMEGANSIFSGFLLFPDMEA
T1 sequence (P02747 29-245 partner): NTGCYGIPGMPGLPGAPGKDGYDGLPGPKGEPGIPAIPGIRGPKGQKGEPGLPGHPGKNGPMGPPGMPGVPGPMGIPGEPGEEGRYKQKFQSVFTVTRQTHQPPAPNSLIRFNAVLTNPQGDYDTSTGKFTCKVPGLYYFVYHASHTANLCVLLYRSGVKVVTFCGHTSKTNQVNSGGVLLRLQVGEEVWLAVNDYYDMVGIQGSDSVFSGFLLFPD
From the text: as §1

[4] = test system: complement system; details: known from the literature; cited from earlier work

Row | Compound | C-Late 035* Wells [1] | Shunt Inhibition 036* Wells [2] | Cl 026* Wells [3] | activity as a complement inhibitor [4]
1 | O=C(Nc1cccc(S(=O)(=O)Nc2cccc(S(=O)(=O)Nc3cc(S(=O)(=O)O)cc4cc(S(=O)(=O)O)cc(S(=O)(=O)O)c34)c2)c1)Nc1cccc(S(=O)(=O)Nc2cccc(S(=O)(=O)Nc3cc(S(=O)(=O)O)cc4cc(S(=O)(=O)O)cc(S(=O)(=O)O)c34)c2)c1 [8,8'-[Ureylenebis[[(1,3-phenylenesulfonylimino)-1,3-phenylenesulfonyl]imino]]di-1,3,6-naphthalenetrisulfonic acid, hexasodium salt] | +5 Wells | +1 Wells | +4 Wells | –
2 | Cc1ccc(C(=O)Nc2ccc(S(=O)(=O)O)c3cc(S(=O)(=O)O)cc(S(=O)(=O)O)c23)cc1NC(=O)c1cccc(NC(=O)Nc2cccc(C(=O)Nc3cc(C(=O)Nc4ccc(S(=O)(=O)O)c5cc(S(=O)(=O)O)cc(S(=O)(=O)O)c45)ccc3C)c2)c1 [Suramin, reference compound] | +2 Wells | – | +4 Wells | moderately active
3 | Cc1ccc(NC(=O)Nc2ccc(C)c(S(=O)(=O)Nc3ccc(C)c(S(=O)(=O)Nc4cc(S(=O)(=O)[O-])cc5cc(S(=O)(=O)[O-])cc(S(=O)(=O)[O-])c45)c3)c2)cc1S(=O)(=O)Nc1ccc(C)c(S(=O)(=O)Nc2cc(S(=O)(=O)[O-])cc3cc(S(=O)(=O)[O-])cc(S(=O)(=O)[O-])c23)c1.[Na+].[Na+].[Na+].[Na+].[Na+].[Na+] [8,8'-[Ureylenebis[[[(6-methyl-3,1-phenylene)sulfonyl]imino]-[[(6-methyl-3,1-phenylene)sulfonyl]imino]]]di-1,3,6-naphthalenetrisulfonic acid, hexasodium salt] | +1 Wells | N | +3 Wells | –
4 | Cc1ccc(S(=O)(=O)Nc2ccc(S(=O)(=O)O)c3cc(S(=O)(=O)O)cc(S(=O)(=O)O)c23)cc1NS(=O)(=O)c1cccc(NC(=O)Nc2cccc(S(=O)(=O)Nc3cc(S(=O)(=O)Nc4ccc(S(=O)(=O)O)c5cc(S(=O)(=O)O)cc(S(=O)(=O)O)c45)ccc3C)c2)c1 [8,8'-[Ureylenebis[(m-phenylenesulfonylimino) (4-methyl-3,1-phenylenesulfonyl)imino]]di-1,3,5-naphthalenetrisulfonic acid, hexasodium salt] | +1 Wells | N | +3 Wells | –
